Assays:
[1] = test system: patients receiving acute treatment of migraine; assay: Phase 2/3 trial BHV3500-201 (Study 201), efficacy in acute treatment of migraine; type: in vivo, human; conditions: for Return to normal function at 30 minutes postdose, n/N (%) / Return to normal function at 60 minutes postdose, n/N (%) / Return to normal function at 2 hours postdose, n/N (%): mITT subjects with functional disability at on-study migraine attack onset; for Pain relapse from 2 to 48 hours postdose, n/N (%): mITT subjects with pain freedom at 2 hours postdose; for Nausea freedom at 2 hours postdose, n/N (%) / Phonophobia freedom at 2 hours postdose, n/N (%) / Photophobia freedom at 2 hours postdose, n/N (%): mITT subjects with symptom present at on-study migraine attack onset
[2] = pH-solubility profile of drug substance; type: physicochemical; conditions: pH = 8.2; mono-hydrochloride salt form
[3] = Phase 2/3 trial BHV3500-201 (Study 201), safety, adverse events and liver function tests; type: in vivo, human
Excerpt: The majority (>80%) of AEs were mild in intensity.

clinical = conditions: human, in vivo; for AUC(0-inf): AUC[0-inf] (ng · h/mL) GM; for AUC(0-t): AUC[0-t] (ng · h/mL) GM; for Cmax: Cmax (ng/mL) GM
Excerpt: BHV3500-101 is a completed Phase 1, single-center, placebo-controlled, randomized, double-blind, sequential SAD study. This study consisted of up to 11 cohorts.
In total, 41 subjects were included in the PK analyses.

pKa of drug substance = type: physicochemical; conditions: mono-hydrochloride salt form
[4] = zavegepant 10 mg, mITT subjects
[5] = zavegepant 20 mg vs placebo, mITT, CMH weighting
[6] = zavegepant 20 mg vs placebo, subjects with functional disability at onset, CMH weighting
[7] = zavegepant 20 mg vs placebo, subjects with symptom present at onset, CMH weighting
[8] = zavegepant 20 mg, mITT subjects

## Cc1cc(C[C@@H](NC(=O)N2CCC(c3cc4ccccc4[nH]c3=O)CC2)C(=O)N2CCN(C3CCN(C)CC3)CC2)cc2cn[nH]c12 [Zavegepant, (R)—N-(3-(7-methyl-1H-indazol-5-yl)-1-(4-(1-methylpiperidin-4-yl)piperazin-1-yl)-1-oxopropan-2-yl)-4-(2-oxo-1,2-dihydroquinolin-3-yl)piperidine-1-carboxamide]
[1]; zavegepant 10 mg vs placebo, subjects with symptom present at onset, CMH weighting
  Photophobia freedom at 2 hours postdose, Stratified Percentage Difference (Zavegepant-Placebo): 5.1%
[1]; [4]
  Pain relief at 30 minutes postdose, n/N (%): (29.9) %
  Pain relief at 60 minutes postdose, n/N (%): (46.0) %
  Rescue medication use within 24 hours postdose, n/N (%): (26.0) %
  Sustained pain freedom from 2 to 24 hours postdose, n/N (%): (15.1) %
  Sustained pain freedom from 2 to 48 hours postdose, n/N (%): (13.8) %
  Sustained pain relief from 2 to 24 hours postdose, n/N (%): (42.5) %
  Sustained pain relief from 2 to 48 hours postdose, n/N (%): (39.6) %
[1]; zavegepant 10 mg
  Return to normal function at 30 minutes postdose, n/N (%): (7.6) %
  Return to normal function at 60 minutes postdose, n/N (%): (18.9) %
  Return to normal function at 2 hours postdose, n/N (%): (34.5) %
  Pain relapse from 2 to 48 hours postdose, n/N (%): (33.0) %
  Nausea freedom at 2 hours postdose, n/N (%): (53.9) %
  Phonophobia freedom at 2 hours postdose, n/N (%): (44.8) %
  Photophobia freedom at 2 hours postdose, n/N (%): (35.6) %
[1]; zavegepant 20 mg intranasal single dose, mITT subjects
  Pain relief at 2 hours postdose, n/N (%): (61.2) %
[1]; [5]
  Pain relief at 30 minutes postdose, Stratified Percentage Difference (Zavegepant-Placebo): 1.9%
  Pain relief at 60 minutes postdose, Stratified Percentage Difference (Zavegepant-Placebo): 7.8%
  Rescue medication use within 24 hours postdose, Stratified Percentage Difference (Zavegepant-Placebo): −7.1%
  Sustained pain freedom from 2 to 24 hours postdose, Stratified Percentage Difference (Zavegepant-Placebo): 6.7%
  Sustained pain freedom from 2 to 48 hours postdose, Stratified Percentage Difference (Zavegepant-Placebo): 5.7%
  Sustained pain relief from 2 to 24 hours postdose, Stratified Percentage Difference (Zavegepant-Placebo): 8.9%
  Sustained pain relief from 2 to 48 hours postdose, Stratified Percentage Difference (Zavegepant-Placebo): 6.2%
[1]; zavegepant 20 mg vs placebo, mITT, stratified by prophylactic migraine medication use, CMH weighting
  Pain relief at 2 hours postdose, Stratified Percentage Difference (Zavegepant-Placebo): 7.5%
[1]; [6]
  Return to normal function at 30 minutes postdose, Stratified Percentage Difference (Zavegepant-Placebo): 4.5%
  Return to normal function at 60 minutes postdose, Stratified Percentage Difference (Zavegepant-Placebo): 1.7%
  Return to normal function at 2 hours postdose, Stratified Percentage Difference (Zavegepant-Placebo): 7.3%
[1]; zavegepant 20 mg vs placebo, subjects with pain freedom at 2 hours postdose, CMH weighting
  Pain relapse from 2 to 48 hours postdose, Stratified Percentage Difference (Zavegepant-Placebo): −12.5%
[1]; [7]
  Nausea freedom at 2 hours postdose, Stratified Percentage Difference (Zavegepant-Placebo): 3.7%
  Phonophobia freedom at 2 hours postdose, Stratified Percentage Difference (Zavegepant-Placebo): 9.3%
  Photophobia freedom at 2 hours postdose, Stratified Percentage Difference (Zavegepant-Placebo): 7.4%
[1]; [8]
  Pain relief at 30 minutes postdose, n/N (%): (26.6) %
  Pain relief at 60 minutes postdose, n/N (%): (49.8) %
  Rescue medication use within 24 hours postdose, n/N (%): (20.2) %
  Sustained pain freedom from 2 to 24 hours postdose, n/N (%): (15.7) %
  Sustained pain freedom from 2 to 48 hours postdose, n/N (%): (13.2) %
  Sustained pain relief from 2 to 24 hours postdose, n/N (%): (44.5) %
  Sustained pain relief from 2 to 48 hours postdose, n/N (%): (38.8) %
[1]; zavegepant 20 mg
  Return to normal function at 30 minutes postdose, n/N (%): (9.9) %
  Return to normal function at 60 minutes postdose, n/N (%): (18.8) %
  Return to normal function at 2 hours postdose, n/N (%): (34.7) %
  Pain relapse from 2 to 48 hours postdose, n/N (%): (37.6) %
  Nausea freedom at 2 hours postdose, n/N (%): (54.7) %
  Phonophobia freedom at 2 hours postdose, n/N (%): (43.3) %
  Photophobia freedom at 2 hours postdose, n/N (%): (37.9) %
[2]
  pH-solubility profile: 105 mg/mL at pH = 8.2
[3]; 5 mg (N = 388)
  ALT or AST > 3 × ULN (subjects): 0
  Bilirubin > 2 × ULN (subjects): 0
[3]; 10 mg (N = 394)
  ALT or AST > 3 × ULN (subjects): 0
  Bilirubin > 2 × ULN (subjects): 0
[3]; 20 mg (N = 403)
  ALT or AST > 3 × ULN (subjects): 0
  Bilirubin > 2 × ULN (subjects): 0
[3]; All zavegepant (N = 1185)
  ALT or AST > 3 × ULN (subjects): 0
  Bilirubin > 2 × ULN (subjects): 0
[3]; any treatment arm
  hepatotoxicity signal (AST or ALT >3xULN, total bilirubin >2xULN): no signal of hepatoxicity
[3]; intranasal, single dose trial
  tolerability and safety: well tolerated and safe
[3]; single dose trial
  AEs mild in intensity: > 80%
clinical
  median Tmax, range across doses: 32.4 to 46.2 min
  median t1/2, range across doses: 150 to 264 min
clinical; inhaled or intranasal, 1 mg
  AUC(0-inf): 3.5 ng·h/mL
  AUC(0-t): 2.34 ng·h/mL
  Cmax: 1.34 ng/mL
clinical; inhaled or intranasal, 1 mg, Tmax (h) Median
  Tmax: 57.6 min
clinical; inhaled or intranasal, 1 mg, t1/2 el (h) Median
  half-life: 98.4 min
clinical; inhaled or intranasal, 3 mg
  AUC(0-inf): 9.75 ng·h/mL
  AUC(0-t): 7.85 ng·h/mL
  Cmax: 3.68 ng/mL
clinical; inhaled or intranasal, 3 mg, Tmax (h) Median
  Tmax: 46.8 min
clinical; inhaled or intranasal, 3 mg, t1/2 el (h) Median
  half-life: 134 min
clinical; inhaled or intranasal, 5 mg
  AUC(0-inf): 20.9 ng·h/mL
  AUC(0-t): 18.8 ng·h/mL
  Cmax: 7.8 ng/mL
clinical; inhaled or intranasal, 5 mg, Tmax (h) Median
  Tmax: 36 min
clinical; inhaled or intranasal, 5 mg, t1/2 el (h) Median
  half-life: 142 min
clinical; inhaled or intranasal, 10 mg
  Tmax (h) Median: 0.54 h
  AUC(0-inf): 28.5 ng·h/mL
  AUC(0-t): 26.2 ng·h/mL
  Cmax: 13.4 ng/mL
clinical; inhaled or intranasal, 10 mg, Tmax (h) Median
  Tmax: 32.4 min
clinical; inhaled or intranasal, 10 mg, t1/2 el (h) Median
  half-life: 175 min
clinical; inhaled or intranasal, Tmax (h) Median
  Tmax: 46.2 min
clinical; inhaled or intranasal, t1/2 el (h) Median
  half-life: 143 min
clinical; median Tmax, range across doses
  Tmax: 32.4 to 57.6 min
clinical; median t1/2, range across doses
  half-life: 96 to 282 min
pKa of drug substance
  pKa: 4.8
